# Source: patent EP4559922A1, “ANTIHISTAMINE COMPOUND, PREPARATION METHOD THEREFOR AND USE THEREOF” (HC Synthetic Pharmaceutical Co., Ltd., priority 2022, dated 2024)
# What was measured:
# [1] = test system: isolated ileal smooth muscle of guinea pigs; assay: Effect on muscle tone of isolated ileal smooth muscle of guinea pigs (no histamine added); settings: X±s; for Smooth muscle tone After administration: 5 minutes after adding drug; for Antispasmodic percentage: relative to tone before adding compound, n = 8, 5 min
# Procedure: (§1) The guinea pig was knocked unconscious with a wooden stick, and the abdomen was immediately dissected to separate the ileum about 15 cm in length. The contents of the intestinal segment were flushed with Tyrode's solution and placed in Tyrode's solution at a constant temperature of 37°C for later use, and oxygen was supplied simultaneously. The experimental intestinal tract (1 cm in length) was cut and placed into 20 ml of Tyrode's solution at a constant temperature of 37°C with a continuous oxygen supply. One end of the intestine was fixed on the ventilation hook and the other end was connected to the muscle tone transducer and led to the computer interface. The muscle tone value of the ileal smooth muscle was recorded with a BL system. The experiment was carried out after the intestinal segment contraction became stable.
# After the ileum contraction curve stabilized, the tone values before adding the drug were recorded, then the drug or DMSO was added, and the average tone value of the ileum contraction curve at that point was recorded 5 minutes later. The operation was repeated 8 times. The antispasmodic percentage was calculated according to the following formula. Antispasmodic percentage =; (Tone value before adding subject compound−Tone value after adding subject compound)/(Tone value before adding subject compound); × 100% [formula]
# histamine = assay: Antagonism of histamine-induced contraction of isolated ileal smooth muscle of guinea pigs; settings: x±s, n = 8; for Smooth muscle tone After administration: 3 minutes after adding 0.05 mL compound following histamine
# Procedure: as §1
# (§2) After the ileal peristalsis curve stabilized, the tone values before adding the compound were recorded, and then 0.05 mL of histamine was added. […] The operation was repeated 8 times. The antispasmodic percentage was calculated using the following equation. Antispasmodic percentage =; (Tone value after adding histamine−Tone value after adding subject compound)/(Tone value after adding histamine) × 100% [formula]
# [2] = as above; settings: relative to tone after adding histamine; x±s, n = 8; 3 min
# Procedure: as §1, §2
# [3] = test system: histamine-induced asthma in guinea pigs; assay: Antiasthmatic effect on histamine-induced asthma in guinea pigs (latency period); type: in vivo; settings: X±s, n = 5; for Post-administration latency period: 1 mg/kg oral gavage, sixty minutes after administration, histamine hydrochloride spray, capped at 8 minutes
# Procedure: The guinea pigs were placed in a polymethyl methacrylate bell jar and a histamine hydrochloride solution was sprayed ultrasonically (0.8 mg/mL) for 40 seconds. The time point at which the guinea pigs developed asthma was recorded. The time of convulsion and fall was taken as the latency period. Guinea pigs with a latency period exceeding 180 seconds were not selected. […] The guinea pigs were administered by oral gavage at a dose of 2 mL/kg·bw. Sixty minutes after the administration, the guinea pigs were placed in bell jars, and histamine hydrochloride solution was sprayed under the same conditions as in the previous selection. The latency period for the onset of asthma was recorded. […] The results were processed statistically.
# [4] = Accelerated stability test; type: physicochemical; settings: 40°C ± 2°C, relative humidity 75% ± 5%; for remaining at 730 h / remaining at 1460 h / remaining at 2190 h / remaining at 4380 h: storage 75% relative humidity, read-out: Content
# [5] = Solubility of the compounds in water, methanol and isopropanol; type: physicochemical; settings: for Solubility in Isopropanol: solvent isopropanol; for Solubility in Water: solvent water
# Procedure: The solubility in water, methanol, and isopropanol of the compounds of the present disclosure and the comparative compounds were measured separately.
Compound,Smooth muscle tone After administration ([1]; n = 8),Antispasmodic percentage ([1]; 5 min),Smooth muscle tone After administration (histamine),Antispasmodic percentage [2],Post-administration latency period [3],Content ([4]; Month 0),Description ([4]; Month 0),Related substances ([4]; Month 0),Description ([4]; Month 1),Related substances ([4]; Month 1),Description ([4]; Month 2),Related substances ([4]; Month 2),Description ([4]; Month 3),Related substances ([4]; Month 3),Description ([4]; Month 6),Related substances ([4]; Month 6),remaining at 730 h ([4]; Month 1),remaining at 1460 h ([4]; Month 2),remaining at 2190 h ([4]; Month 3),remaining at 4380 h ([4]; Month 6),further results
O=C1Cc2ccccc2C(=C2CCN(CCOCOP(=O)(O)O)CC2)c2ccsc21 [Compound IV-6],1.17 ± 0.28 g,31.17±19.54%,1.15 ± 0.20 g,66.56±19.45%,370.56 ± 50.81 s,99.7%,White powder,0.03%,White powder,0.05%,White powder,0.09%,White powder,0.12%,White powder,0.25%,99.7%,99.6%,99.6%,99.4%,
O=C1Cc2ccccc2C(=C2CCN(CCCCCOP(=O)(O)O)CC2)c2ccsc21 [Compound IV-5],1.14 ± 0.30 g,33.72±19.05%,1.20 ± 0.22 g,65.61±19.34%,377.11 ± 50.43 s,,,,,,,,,,,,,,,,
O=C1Cc2ccccc2C(=C2CCN(CCOP(=O)(O)O)CC2)c2ccsc21 [Compound IV-2],1.19 ± 0.31 g,,1.14 ± 0.23 g,66.95±17.07%,380.27 ± 50.25 s,99.7%,White powder,0.03%,White powder,0.04%,White powder,0.04%,White powder,0.06%,White powder,0.09%,99.7%,99.7%,99.6%,99.6%,Antispasmodic percentage [1]: 30.40±18.50%
O=C1Cc2ccccc2C(=C2CCN(CCCOP(=O)(O)O)CC2)c2ccsc21 [Compound IV-3],,30.95±19.69%,,64.91±18.92%,371.38 ± 49.10 s,99.7%,White powder,0.03%,White powder,0.05%,White powder,0.09%,White powder,0.12%,White powder,0.25%,,,,,"Solubility in Isopropanol [5]: 1 mg/mL; Content ([4]; Month 1, 43800 min): 99.7%; Content ([4]; Month 2, 87600 min): 99.6%; Content ([4]; Month 3, 131400 min): 99.6%; Content ([4]; Month 6, 262800 min): 99.4%"
O=C1Cc2ccccc2C(=C2CCN(CCCCCOCOP(=O)(O)O)CC2)c2ccsc21 [Compound IV-9],1.16 ± 0.28 g,32.95±19.04%,1.15 ± 0.26 g,66.57±18.66%,369.11 ± 49.40 s,,,,,,,,,,,,,,,,
O=C1Cc2ccccc2C(=C2CCN(CCCOP(=O)(O)O)CC2)c2ccsc21 [Compound III-3],,30.23±17.82%,,66.66±15.49%,368.01 ± 50.67 s,99.7%,White powder,0.03%,White powder,0.05%,White powder,0.10%,White powder,0.15%,White powder,0.34%,99.7%,99.6%,99.5%,99.2%,Solubility in Isopropanol [5]: 24 mg/mL; Solubility in Water [5]: 20 mg/mL
O=C1Cc2ccccc2C(=C2CCN(COP(=O)(O)O)CC2)c2ccsc21 [Compound IV-1],1.14 ± 0.31 g,33.72±18.32%,1.18 ± 0.24 g,66.28±18.26%,368.83 ± 49.03 s,99.7%,White powder,0.03%,White powder,0.05%,White powder,0.09%,White powder,0.12%,White powder,0.24%,99.7%,99.6%,99.6%,99.4%,
O=C1Cc2ccccc2C(=C2CCN(CCCCOP(=O)(O)O)CC2)c2ccsc21 [Compound IV-4],1.18 ± 0.26 g,30.59±19.00%,1.19 ± 0.21 g,65.40±19.07%,376.89 ± 51.43 s,99.7%,White powder,0.03%,White powder,0.05%,White powder,0.09%,White powder,0.12%,White powder,0.25%,99.7%,99.6%,99.6%,99.4%,
O=C1Cc2ccccc2C(=C2CCN(CCOCOP(=O)(O)O)CC2)c2ccsc21 [Compound III-6],1.14 ± 0.30 g,,1.22 ± 0.23 g,64.43±17.18%,370.03 ± 52.11 s,,,,,,,,,,,,,,,,"Smooth muscle tone Before administration ([1]; baseline, n = 8): 1.71 ± 0.24 g; Antispasmodic percentage [1]: 33.33±19.04%; Smooth muscle tone After addition of histamine (histamine; after 0.05 mL histamine, before compound): 3.43 ± 0.92 g; Smooth muscle tone Before administration (histamine; baseline before histamine): 1.78 ± 0.20 g; Pre-administration latency period ([3]; baseline before administration, histamine hydrochloride 0.8 mg/mL sprayed 40 seconds): 98.68 ± 49.22 s"
CN1CCC(=C2c3ccccc3CC(=O)c3sccc32)CC1 [Ketotifen],,,,,,,,,,,,,,,,,,,,,Solubility in Water [5]: Practically insoluble
O=C1Cc2ccccc2C(=C2CCN(CCCCOCOP(=O)(O)O)CC2)c2ccsc21 [Compound IV-8],1.14 ± 0.31 g,32.94±19.45%,1.20 ± 0.25 g,65.01±18.56%,370.23 ± 50.29 s,99.7%,White powder,0.03%,White powder,0.04%,White powder,0.05%,White powder,0.06%,White powder,0.09%,99.7%,99.7%,99.6%,99.6%,
O=C1Cc2ccccc2C(=C2CCN(CCCOCOP(=O)(O)O)CC2)c2ccsc21 [Compound IV-7],1.15 ± 0.25 g,33.52±19.74%,1.17 ± 0.22 g,65.99±19.08%,373.33 ± 52.76 s,,,,,,,,,,,,,,,,
